# Reference: US9962341B2, “Active pharmaceutical ingredient (API) comprising cannabinoids for use in the treatment of cancer” (GW Pharma Limited, priority 2014, dated 2018)
# Read-outs that look alike come from different tables or passages of the source.
# Test system: A549
# Assay: Cell viability (CellTiter-Blue, 72 h), A549 lung cancer cells
# Assay type: cell-based
# Conditions: Homo sapiens
# Protocol: The following cell lines were tested in this example: Lung Cancer (A549, NCI-H460); Pancreatic cancer (PANC1, Mia-Pa-Ca-2); Melanoma (WM115, A375); Ovarian cancer (OVCAR3, SKOV3); Gastric cancer (MKN45, HGC-27); Renal cancer (ACHN) and Bladder Cancer (RT112).
# Each tumour cell line was maintained in vitro in RPMI 1640+10% heat inactivated FBS and 2 mM L-glutamine (growth media) at 37° C. in 5% CO2 and humidified conditions. The cells were harvested, washed, re-suspended into growth medium and counted. The cells were re-suspended into assay media (RPMI 1640+5% heat inactivated FBS+ and 2 mM L-glutamine) at 4×10^4 cells/ml (dependent upon cell type) and plated into the middle 240 wells of 384 well tissue culture plates (Corning CellBind, black-wall plates) 25 μl/well aliquots; 50 μl of growth media was aliquoted into the outer wells. There were 3 plates for each cell line.
# The plates were incubated overnight at 37° C., in 5% humidified CO2.
# The phytocannabinoid test compounds were prepared in 100% DMSO vehicle at a stock concentration of 20 and 40 mM.
# Starting with the 20 mM stock in DMSO, this was serially diluted (2 fold) in DMSO in a 96-well plate, to 20 (no dilution), 10, 5, 2.5, 1.25, 0.625, 0.315, 0.157 and […]. Following this, 10 ul of each compound dilution was diluted into 990 ul of 1% (v/v) FBS media in a deep well block making the final concentrations of 200, 100, 50, 25, 12.5, 6.25, 3.125, 1.56 and 0.79 μM (2× final assay concentrations and 1% DMSO).
# An equal volume of each cannabinoid in the combination (stock concentration 40 mM) was mixed together to make a stock of 20 mM of each cannabinoid in DMSO. This was serially diluted (2 fold) in DMSO in a 96-well plate, to 20 (no dilution), 10, 5, 2.5, 1.25, 0.625, 0.315, 0.157 and […]. Following this, 10 ul of each combination dilution was diluted into 990 ul of 1% (v/v) FBS media in a deep well block making the final concentrations of 200, 100, 50, 25, 12.5, 6.25, 3.125, 1.56 and 0.79 μM (2× final assay concentrations and 1% DMSO).
# Taxotere SOC was prepared in 100% DMSO to give a stock concentration of 10 mM. This was diluted in DMSO from the stock solution to 200 μM, then serially diluted (3-fold) in DMSO to 200 (no dilution), 66.66, 22.22, 7.41, 2.47, 0.82, 0.27, 0.09, 0.03 μM. 10 ul of each of the taxotere dilutions was diluted in 990 ul of 1% (v/v) FBS media making the final concentrations of 2, 0.67, 0.22, 0.074, 0.0247, 0.0082, 0.0027 0.0009, 0.0003 μM (2× final assay concentrations and 1% DMSO).
# The plates were incubated for 72 h at 37° C. in 5% humidified CO2. To develop the plates, at 72 h, 10 μl of CellTiter-Blue™ reagent was added to each test/blank well.
# The plates were incubated at 37° C., 5% humidified CO2. Fluorescence was measured using a Flex II Station plate reader (570 nm excitation wavelength, 600 nm emission wavelength, 590 nm cut-off) after 3 h.
# The phytocannabinoid compounds CBD, CBGA, CBG, CBDA, THCV and THC were tested on a panel of lung (A549, NCI-H460), pancreatic (PANC1, Mia-Pa-Ca-2), melanoma (WM115, A375), ovarian (OVCAR3, SKOV3), gastric (MKN45, HGC-27), renal (ACHN) and bladder (RT112) cancer cell lines according to the protocol for 72 h in media containing 1% FBS.
# The IC50 values for each phytocannabinoid and combination of CBD with the other phytocannabinoids was calculated for each cell line. The raw data values expressed in relative fluorescent units were normalised to the vehicle for each individual plate and any reduction in fluorescence indicated a decrease in viability.
# This calculation was as described in Example 1 above.
# [1] = A549, 72 h, read-out: Cell line IC50 value
# [2] = A549, read-out: Dm (median effect dose)
Compound,IC50 [1] [µM],IC50 [2] [µM]
"C=C(C)[C@@H]1CCC(C)=C[C@H]1c1c(O)cc(CCCCC)cc1O [CBD, Cannabidiol]",3.2,2.87
"C=C(C)[C@@H]1CCC(C)=C[C@H]1c1c(O)cc(CCCCC)c(C(=O)O)c1O [CBDA, Cannabidiolic acid]",8.5,7.6
"CCCCCc1cc(O)c(C/C=C(\C)CCC=C(C)C)c(O)c1 [CBG, Cannabigerol]",4.3,4.23
"CCCCCc1cc(O)c(C/C=C(\C)CCC=C(C)C)c(O)c1C(=O)O [CBGA, Cannabigerolic acid]",6.1,6.89
"CCCCCc1cc(O)c2c(c1)OC(C)(C)[C@@H]1CCC(C)=C[C@@H]21 [THC, Tetrahydrocannabinol, reference compound]",5.5,4.08
"CCCc1cc(O)c2c(c1)OC(C)(C)[C@@H]1CCC(C)=C[C@@H]21 [THCV, Tetrahydrocannabivarin]",7.4,6.59
"CC(=O)O[C@@]12CO[C@@H]1C[C@H](O)[C@@]1(C)C(=O)[C@H](O)C3=C(C)[C@@H](OC(=O)[C@H](O)[C@@H](NC(=O)OC(C)(C)C)c4ccccc4)C[C@@](O)([C@@H](OC(=O)c4ccccc4)[C@H]21)C3(C)C [Taxotere, Docetaxel, reference compound]",0.0006,–
